Laboratory results from patent US11903912B2, “Composition for preventing and treating breast cancer including selenopsammaplin A as active ingredients” (Seoul National University R & DB Foundation, priority 2019, dated 2024).

How the values were obtained:
[1] = test system: SK-HEP-1 human liver cancer cells; assay: SRB cytotoxicity test, SK-HEP-1; assay type: cell-based; details: SRB assay, cultured 3 days
Protocol: (§1) A cytotoxicity test was performed using synthesized selenopsammaplin A and derivatives thereof (Lee S K et al […] Chem Biol Interact 115:215-28).
(§2) The cytotoxicity test was performed on a total of five representative cancer cell lines. The cytotoxicity of each compound was measured using an SRB assay method (human lung cancer cells, A549; human colon cancer cells, HCT116; human breast cancer cells, MDA-MB231; human liver cancer cells, SK-HEP-1; human gastric cancer cells, SNU638).
(§3) Each cell line was sub-cultured once or twice using Roswell Park Memorial Institute (RPMI) medium 1640 (RPMI 1640) or Dulbecco's Modified Eagle's Medium (DMEM) containing 10% fetal bovine serum (FBS) inactivated by heat, 100 units/mL of penicillin, 100 μg/mL of streptomycin, and 250 ng/mL of amphotericin B at 37° C. for 1 week under a 5% CO2 condition. All cells were […] in liquid nitrogen, and then passaged three or more times to be used in the experiment. The effects of compounds on cell growth were measured using a sulforhodamine B (SRB) method (Lee et al (1998) Chemico-Biol Interact 115:215-228).
(§4) Specifically, each human cancer cell line used in the present invention was sub-cultured in an RPMI medium containing 10% FBS, 1% PSF, and the like, and 10 μl of a sample dissolved in 10% DMSO and 190 μl (4-5×10^4 cells/ml) of the cell suspension were added to each well of a 96-well plate and cultured for 3 days. 190 μl of the cell suspension was added to at least 16 wells and cultured for 30 minutes, and used as a zero-day control. The cultured cells were fixed with 10% trichloroacetic acid (TCA) and then stained with an SRB solution, and the staining solution was dissolved with 10 mM Tris-base, and then absorbance at 515 nm was measured. Using the case of culturing in 10% DMSO as a control, cell viability according to each test material treatment was measured using Equation 1 below. Etoposide was used as a positive control. % Viability=(OD(sample)−OD(0-day))/(OD(10% DMSO)−OD(0-day))×100 [Equation 1]
(§5) Assuming that a control not-treated with the sample was set at 100%, the values of sample-treated groups were expressed as percentage with respect to the control, and each test material treatment results were obtained as the mean±SEM of two or three tests. The IC50 value is the concentration of the test material for a 50% survival rate.

breast cancer metastasis = assay: Breast cancer metastasis to organs in animal model, IVIS; assay type: in vivo, nude BALB/c mice; details: 5 mg/kg, 15 mg/kg
Text: Organs such as the lungs, liver, spleen, and kidneys were extracted from the animal model of Example 8, and the degrees of cancer metastasis in the control and the administered groups were indirectly photographed using IVIS (PerkinElmer) and are illustrated in FIG. 9.

[2] = test system: SNU638 human gastric cancer cells; assay: SRB cytotoxicity test, SNU638; assay type: cell-based; details: SRB assay, cultured 3 days
Protocol: as §1, §2, §3, §4, §5

MDA-MB-231 cells = assay: Cancer cell migration (scratch) test; assay type: cell-based, human; details: MDA-MB-231, scratch, 50-400 nM, 24 hours
Protocol: The triple-negative breast cancer cell line MDA-MB-231 was spread at a concentration of 2×10^6 cells/well on a DMEM medium containing 10% FBS in a 6-well plate, cultured at 37° C. for 24 hours under a 5% CO2 condition, and then washed once with phosphate-buffered saline (PBS). After scratching using a 200 μl tip, the cells were treated with 50-400 nM compound 2 and 400 nM psammaplin A, and then cultured for 24 hours. After washing once with PBS, the degree of migration of cells was photographed using a microscope, and the results thereof are illustrated in FIG. 5A. The degree of scratch healing compared to a control using ImageJ software is illustrated in FIG. 5B.

O=C(NCC[Se][Se]CCNC(=O)/C(Cc1ccccc1)=N/O)/C(Cc1ccccc1)=N/O [Compound 2, (2E,2′E)-N,N′-(diselenediylbis(ethane-2,1-diyl))bis(2-(hydroxyimino)-3-phenylpropanamide)]
IC50 [1]: 120 nM | degree of metastasis to each organ (lungs, liver, spleen, kidneys) (breast cancer metastasis): significantly reduced | degree of metastasis to the lungs (breast cancer metastasis): greatly reduced | IC50 [2]: 50 nM | migration of breast cancer cells (MDA-MB-231 cells): effectively suppressed
